Legend:
planktonic organisms = experiment: Dynamic flow loop test, planktonic kill after 4 hour contact time; type: cell-based; details: 112.5 ppm active THPS
Method: (§1) Evaluation of the biocide compositions disclosed herein was performed through a dynamic flow loop test where both planktonic and sessile organisms could be monitored. To start this testing, fluid from the field, as well as cultured organisms from the field, were placed into the system and allowed to grow for approximately 7 weeks, providing a mature biofilm that can then be challenged by the biocide treatment.
(§2) The test system holds approximately 1.5 liters of fluid that are continually circulated over 1018 carbon steel biostuds located in the 6 o'clock position of a modified Robbin's device. The device holds a maximum of eight biostuds in the 6 o'clock position. The production fluid was pumped through the system at a rate of approximately 3.1 gallons per minute, which allows for deposition of microorganisms and solids onto the biostuds. The health of the microbial population was monitored weekly during the biofilm growth period using ATP quantification.
(§3) After concluding the establishment of a mature biofilm, the sessile kill study was initiated. […] A baseline reading was taken, during all of the studies, prior to the addition of the chemical to the individual flow loop. […]
Planktonic kill in the dynamic flow loops was also evaluated immediately after a 4 hour contact time with the biocide.

[1] = system: biofilm (sessile organisms) on 1018 carbon steel biostuds; experiment: Dynamic flow loop test, sessile kill study and biofilm regrowth; type: cell-based; details: within 24 hours
Method: as §1, §2, §3
The initial data point before treatment is set to 100% and all other readings are reported as a percent change compared to the baseline. […]

Q: For “tetrakis(hydroxymethyl)phosphonium sulphate [THPS]”, which “Planktonic kill, % reduction” value (planktonic organisms) is on record?
A: 81.8%

Q: What about the “Biofilm size after treatment compared to before treatment” value [1] of the same substance?
A: larger than it was before treatment

Reference: patent publication US9833002B2, “Biocide compositions” (Ecolab USA Inc., priority 2013, dated 2017)
